Data published in PubChem BioAssay (NCI).
Where “and” joins values, the source holds several entries; their conditions need not be identical. Equal entries are not always repeated.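 In this assay, cells in 96-well plates receive the compound at five concentrations for 48 hours. Endpoints are linearly interpolated between the surrounding concentrations. Abbreviation: GI50, concentration required for 50% inhibition of growth. TGI marks complete inhibition of growth.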

Assays:
Experiment in all cases: inhibition of tumour cell growth, NCI panel, 48 h
TK-10 renal = tested on: TK-10 renal
MOLT-4 leukemia = tested on: MOLT-4 leukemia
UACC-62 melanoma = tested on: UACC-62 melanoma
SK-MEL-5 melanoma = tested on: SK-MEL-5 melanoma
K-562 leukemia = tested on: K-562 leukemia
NCI-H226 lung = tested on: NCI-H226 lung
SF-539 CNS = tested on: SF-539 CNS
HCT-15 colon = tested on: HCT-15 colon

## COc1ccc(-c2nn(-c3ccc(NC(=O)c4ccc(Cl)c(C(F)(F)F)c4)cc3)cc2-c2ccncc2)cc1Cl
TK-10 renal
  GI50: 1.71 µM
  TGI: > 32.8 µM
MOLT-4 leukemia
  GI50: 0.388 µM
  TGI: > 100 µM
UACC-62 melanoma
  GI50: 1.07 µM
  TGI: 5.02 µM
SK-MEL-5 melanoma
  GI50: 1.33 µM
  TGI: 3.84 µM
K-562 leukemia
  GI50: 0.706 µM
  TGI: > 100 µM
NCI-H226 lung
  GI50: 4.75 µM
  TGI: > 100 µM
SF-539 CNS
  GI50: 0.5 µM

## N=Nc1c(OC(=O)Nc2ccccc2)[nH]c2ccccc12
HCT-15 colon
  TGI: > 100 µM
TK-10 renal
  TGI: 60.8 µM
UACC-62 melanoma
  TGI: 35.5 µM
SK-MEL-5 melanoma
  TGI: 51.9 µM
K-562 leukemia
  TGI: > 100 µM
NCI-H226 lung
  TGI: 37.9 µM
SF-539 CNS
  TGI: 37.4 µM

## NC1=NC(c2ccc(Cl)cc2)N(c2ccc(S(=O)(=O)Nc3ncccn3)cc2)C(N)=N1 (stereo not drawn)
HCT-15 colon
  TGI: > 100 µM
TK-10 renal
  TGI: > 100 µM
MOLT-4 leukemia
  TGI: > 100 µM
UACC-62 melanoma
  TGI: > 100 µM
SK-MEL-5 melanoma
  TGI: > 100 µM
K-562 leukemia
  TGI: > 100 µM
NCI-H226 lung
  TGI: > 100 µM
SF-539 CNS
  TGI: > 100 µM

## COc1ccc(C(C#N)NC23CC4CC(CC(C4)C2)C3)cc1OC (stereo not drawn)
HCT-15 colon
  TGI: > 100 µM
TK-10 renal
  TGI: > 100 µM
MOLT-4 leukemia
  TGI: > 100 µM
UACC-62 melanoma
  TGI: > 100 µM
SK-MEL-5 melanoma
  TGI: > 100 µM
K-562 leukemia
  TGI: > 100 µM
NCI-H226 lung
  TGI: > 100 µM
SF-539 CNS
  TGI: > 100 µM

## O=C(/C=C/C12c3ccccc3C(c3ccccc31)C1C(=O)N(c3ccccc3)C(=O)C12)c1ccc(Cl)cc1 (stereo not drawn)
HCT-15 colon
  GI50: 1.19 µM
  TGI: 6.46 µM
TK-10 renal
  GI50: 3.18 µM
  TGI: 25.1 µM
MOLT-4 leukemia
  GI50: 0.759 µM
  TGI: > 100 µM
UACC-62 melanoma
  GI50: 1.66 µM
  TGI: 4.58 µM
SK-MEL-5 melanoma
  GI50: 1.95 µM
  TGI: 4.07 µM
K-562 leukemia
  GI50: 1.55 µM
  TGI: > 100 µM
NCI-H226 lung
  GI50: 2.04 µM
  TGI: 5.82 µM
SF-539 CNS
  GI50: 1.69 µM
  TGI: 3.79 µM

## COc1cc([N+](=O)[O-])c(S(=O)(=O)O)cc1NS(=O)(=O)c1ccc(C)cc1
HCT-15 colon
  TGI: > 100 µM
TK-10 renal
  TGI: > 100 µM
MOLT-4 leukemia
  TGI: > 100 µM
UACC-62 melanoma
  TGI: > 100 µM
SK-MEL-5 melanoma
  TGI: > 100 µM
K-562 leukemia
  TGI: > 100 µM
NCI-H226 lung
  TGI: > 100 µM
SF-539 CNS
  TGI: > 100 µM

## COc1ccc2c(c1)[C@]1(C[C@H]1c1ccc3c(/C=C/c4ccc(CN5C[C@@H](C)O[C@@H](C)C5)cc4)n[nH]c3c1)C(=O)N2
HCT-15 colon
  GI50: 3.34 µM
  TGI: > 100 µM
TK-10 renal
  GI50: 11.8 µM
  TGI: > 61.3 µM
MOLT-4 leukemia
  GI50: 2.23 µM
  TGI: > 100 µM
UACC-62 melanoma
  GI50: 9.79 µM
  TGI: 39.6 µM
SK-MEL-5 melanoma
  GI50: 1.77 µM
  TGI: 3.87 µM
NCI-H226 lung
  GI50: 14.5 µM
  TGI: > 100 µM
SF-539 CNS
  GI50: 1.63 µM
  TGI: 4.63 µM

## CN1CCN(CCCOc2cccc3nc(Nc4ccc(Cl)c(F)c4)ccc23)CC1
HCT-15 colon
  GI50: 1.4 µM
  TGI: 2.79 µM
TK-10 renal
  GI50: 1.81 µM
  TGI: 3.28 µM
MOLT-4 leukemia
  GI50: 1.82 µM
  TGI: 3.77 µM
UACC-62 melanoma
  GI50: 2.05 µM
  TGI: 4.1 µM
SK-MEL-5 melanoma
  GI50: 1.78 µM
  TGI: 3.17 µM
NCI-H226 lung
  GI50: 2.05 µM
  TGI: 4.14 µM
SF-539 CNS
  GI50: 1.53 µM
  TGI: 3.04 µM

## COc1cc2ccccc2c2cc([N+](=O)[O-])oc12
HCT-15 colon
  TGI: 23.7 µM
TK-10 renal
  TGI: 5.44 µM
MOLT-4 leukemia
  TGI: 3.95 µM
UACC-62 melanoma
  TGI: 2.36 µM
SK-MEL-5 melanoma
  TGI: 0.293 µM
K-562 leukemia
  TGI: > 38.9 µM
NCI-H226 lung
  TGI: 3.04 µM
SF-539 CNS
  TGI: 7.75 µM

## COc1cc(NS(C)(=O)=O)ccc1Nc1c2ccccc2nc2c(C)cccc12
HCT-15 colon
  GI50: 0.202 µM and 0.242 µM
  TGI: 2.61 µM and 3.53 µM
TK-10 renal
  GI50: 0.476 µM and 0.16 µM
  TGI: 2.94 µM and 1.38 µM
MOLT-4 leukemia
  GI50: 0.0245 µM and 0.0304 µM
  TGI: 0.229 µM and 0.176 µM
UACC-62 melanoma
  GI50: 0.182 µM and 0.211 µM
  TGI: 2.97 µM and 4.19 µM
SK-MEL-5 melanoma
  GI50: 0.153 µM and 0.218 µM
  TGI: 1.2 µM and 3.69 µM
K-562 leukemia
  GI50: 0.272 µM and 0.276 µM
  TGI: > 37.8 µM and 11.8 µM
SF-539 CNS
  GI50: 0.102 µM and 0.123 µM
  TGI: 0.699 µM and 0.584 µM

## CC(N=C(N)N)C(=O)O (stereo not drawn)
HCT-15 colon
  TGI: > 100 µM
TK-10 renal
  TGI: > 100 µM
MOLT-4 leukemia
  TGI: > 100 µM
UACC-62 melanoma
  TGI: > 100 µM
SK-MEL-5 melanoma
  TGI: > 100 µM
K-562 leukemia
  TGI: > 100 µM
NCI-H226 lung
  TGI: > 100 µM

## Cn1cc(C2=C(c3c4n(c5ccccc35)CCCC4)C(=O)NC2=O)c2ccccc21
HCT-15 colon
  GI50: 11 µM
  TGI: > 25 µM
TK-10 renal
  GI50: > 20.1 µM
  TGI: > 25 µM
MOLT-4 leukemia
  GI50: > 17.2 µM
  TGI: > 25 µM
UACC-62 melanoma
  GI50: 6.32 µM
  TGI: > 25 µM
SK-MEL-5 melanoma
  GI50: 7.94 µM
  TGI: > 25 µM
K-562 leukemia
  GI50: 5.32 µM
  TGI: > 25 µM
NCI-H226 lung
  GI50: > 22 µM
  TGI: > 25 µM
SF-539 CNS
  GI50: 10.5 µM
  TGI: > 25 µM

## COc1cc2c(c(OC)c1OC)C(=O)CC(c1cccc(NC(=O)c3ccc(Br)cc3)c1)O2 (stereo not drawn)
HCT-15 colon
  GI50: 2.31 µM
  TGI: > 100 µM
TK-10 renal
  GI50: 4.44 µM
  TGI: > 100 µM
MOLT-4 leukemia
  GI50: 1.54 µM
  TGI: 4.19 µM
UACC-62 melanoma
  GI50: 1.57 µM
  TGI: 4.09 µM
SK-MEL-5 melanoma
  GI50: 1.62 µM
  TGI: 3.32 µM
K-562 leukemia
  GI50: 1.4 µM
  TGI: > 100 µM
NCI-H226 lung
  GI50: 3 µM
  TGI: > 100 µM
SF-539 CNS
  GI50: 3.86 µM
  TGI: > 100 µM

## O=C(CCN1CCOCC1)Nc1ccc(F)cc1F
HCT-15 colon
  TGI: > 100 µM
TK-10 renal
  TGI: > 100 µM
MOLT-4 leukemia
  TGI: > 100 µM
UACC-62 melanoma
  TGI: > 100 µM
SK-MEL-5 melanoma
  TGI: > 100 µM
K-562 leukemia
  TGI: > 100 µM
NCI-H226 lung
  TGI: > 100 µM
SF-539 CNS
  TGI: > 100 µM

## COc1cc(-c2nn(-c3ccc(NC(=O)Nc4ccc(Cl)c(Cl)c4)cc3)cc2-c2ccncc2)ccc1Cl
HCT-15 colon
  GI50: 2.88 µM
  TGI: 14.1 µM
TK-10 renal
  GI50: 6.5 µM
  TGI: > 100 µM
MOLT-4 leukemia
  GI50: 3.27 µM
  TGI: > 100 µM
UACC-62 melanoma
  GI50: 3.35 µM
  TGI: 13.3 µM
SK-MEL-5 melanoma
  GI50: 2.48 µM
  TGI: 8.29 µM
K-562 leukemia
  GI50: 3.51 µM
  TGI: > 100 µM
NCI-H226 lung
  GI50: 4.19 µM
  TGI: 69.1 µM
SF-539 CNS
  GI50: 2.89 µM
  TGI: 33.6 µM

## CN(Cc1cnc(N)nc1N)c1ccc(C(=O)O)cc1
HCT-15 colon
  GI50: > 100 µM
  TGI: > 100 µM
TK-10 renal
  GI50: > 100 µM
  TGI: > 100 µM
MOLT-4 leukemia
  GI50: > 100 µM
  TGI: > 100 µM
UACC-62 melanoma
  GI50: > 100 µM
  TGI: > 100 µM
SK-MEL-5 melanoma
  GI50: > 100 µM
  TGI: > 100 µM
NCI-H226 lung
  GI50: > 100 µM
  TGI: > 100 µM
SF-539 CNS
  GI50: > 100 µM
  TGI: > 100 µM

## Cc1nc2ccccc2c(=O)n1/N=C(\N=Nc1cc(Cl)ccc1Cl)c1cccc(-c2ccco2)c1
HCT-15 colon
  TGI: > 100 µM
TK-10 renal
  TGI: > 100 µM
MOLT-4 leukemia
  TGI: > 100 µM
UACC-62 melanoma
  TGI: > 100 µM
SK-MEL-5 melanoma
  TGI: > 100 µM
K-562 leukemia
  TGI: > 10 µM
NCI-H226 lung
  TGI: > 100 µM
SF-539 CNS
  TGI: > 100 µM

## CC(=O)Nc1ccc(-c2c3nc(c(-c4cc5ccccc5[n+](C)c4)c4ccc([nH]4)c(-c4ccc(NC(C)=O)cc4)c4nc(c(-c5cc6ccccc6[n+](C)c5)c5ccc2[nH]5)C=C4)C=C3)cc1
HCT-15 colon
  GI50: > 50 µM
  TGI: > 50 µM
TK-10 renal
  GI50: 15.2 µM
  TGI: 44.6 µM
MOLT-4 leukemia
  GI50: > 50 µM
  TGI: > 50 µM
UACC-62 melanoma
  GI50: 23.9 µM
  TGI: > 50 µM
SK-MEL-5 melanoma
  GI50: 21.8 µM
  TGI: > 50 µM
K-562 leukemia
  GI50: 20.1 µM
  TGI: > 50 µM

## CC1=CC[C@@H]2C(C)(C)C(=O)CC[C@@]2(C)[C@@H]1COc1ccc2ccc(=O)oc2c1
HCT-15 colon
  GI50: 13.4 µM
  TGI: 56.4 µM
TK-10 renal
  GI50: 45.3 µM
  TGI: > 100 µM
MOLT-4 leukemia
  GI50: 3.79 µM
  TGI: 17.9 µM
UACC-62 melanoma
  GI50: 5.22 µM
  TGI: 23.5 µM
SK-MEL-5 melanoma
  GI50: 4 µM
  TGI: 14.2 µM
K-562 leukemia
  GI50: 7.02 µM
  TGI: 88.7 µM
NCI-H226 lung
  GI50: 8.7 µM
  TGI: 33.7 µM
SF-539 CNS
  GI50: 20.1 µM
  TGI: 63.8 µM
